Values quoted from earlier work in patent US8790688B2, “Wound care device for local treatment of pain in a wound” (Coloplast A/S, priority 2001, dated 2014).

Details: reported lowest range for systemic effect

Compared with `CC(C)Cc1ccc(C(C)C(=O)O)cc1` (stereo not shown) [Ibuprofen], `CC(C(=O)O)c1cccc(C(=O)c2ccccc2)c1` (stereo not shown) [Ketoprofen] is 3.3-fold lower in “plasma concentration for systemic effect in the lowest range” value: 10000 ng/mL for the first, 3000 ng/mL for the second.

First: CN1C(C(=O)Nc2ccccn2)=C(O)c2ccccc2S1(=O)=O [Piroxicam]
Second: CC(=O)Oc1ccccc1C(=O)O [Acetylsalicylic acid]
The “plasma concentration for systemic effect in the lowest range” value of the first is 270-fold lower: 1000 ng/mL for the first, 270000 ng/mL for the second.
